Measurements: article PMC6274554, “Synthetic Strategy and Anti-Tumor Activities of Macrocyclic Scaffolds Based on 4-Hydroxyproline” (Molecules, 2016)

Key:
Format in all cases: cell-based, human
[1] = test system: lung cancer cell line A549; test: MTT cytotoxicity assay, A549; conditions: Homo sapiens, A549 cells, 8000 cells/well, 24 h incubation with compound, absorbance 490 nm, read-out: IC50 (μmol/L) A549
Text: (§1) A small library derived from 6a–b, 9 and 10a–c was obtained by hydrolysis of the macrocycles and condensation with amines. The anti-tumor activities for lung cancer cell line A549, breast cancer cell line MDA-MB-231 and hepatocarcinoma cell line Hep G2 of all these new compounds were screened in vitro by an MTT assay. Most of the compounds show some inhibitory activities against A549, MDA-MB-231 and Hep G2. […] In the future, further structure–activity relationship studies will be performed to determine how the substituents affected the anti-tumor activity and to design the best chemical structure in the future.
(§2) The human lung cancer cell line A549, breast cancer cell line MDA-MB-231 and hepatocarcinoma cell line Hep G2 were cultured in Dulbecco’s modified Eagle’s medium (DMEM) supplemented with antibiotics (penicillin 50 U/mL; streptomycin 50 µg/mL) and 10% FCS. The incubation was at 37 °C in a humidified atmosphere of 5% CO2 in air before experiments. Cells were first seeded at a density of 8000 cells/well in a 96-well plate for 48 hours. Solutions containing respective concentrations of compounds were added into wells and incubation continued for another 24 hours. After that, the MTT (3-(4,5-dimethylthiazol-2-yl)-2,5-diphenyltetrazolium bromide) dye stock solution (10 μL, 5 mg/mL) was added to each well. After 4 h, the supernatant was removed and DMSO (100 μL) was added to solubilize the MTT. The absorbance was measured at a wave length of 490 nm (A490nm) on an ELISA microplate reader. Results were expressed as IC50 values.

[2] = test system: breast cancer cell line MDA-MB-231; test: MTT cytotoxicity assay, MDA-MB-231; conditions: Homo sapiens, MDA-MB-231 cells, 8000 cells/well, 24 h incubation with compound, absorbance 490 nm, read-out: IC50 (μmol/L) MDA-MB-231
Text: as §1, §2

[3] = test system: hepatocarcinoma cell line Hep G2; test: MTT cytotoxicity assay, Hep G2; conditions: Homo sapiens, HepG2, Hep G2 cells, 8000 cells/well, 24 h incubation with compound, absorbance 490 nm, read-out: IC50 (μmol/L) Hep G2
Text: as §1, §2

Q: How did the IC50 [1] turn out when O=C(Nc1ccccc1)[C@@H]1C[C@@H]2CN1C(=O)c1cccc(c1)OCCCCCCO2 [Compound 44, (10R,12S)-14-Oxo-N-phenyl-2,9-dioxa-13-aza-tricyclo[13.3.1.1^10,13]eicosane-1(19),15,17-triene-12-carboxamide] was run?
A: The IC50 was 98.2 µmol/L.

Q: What about the IC50 [2] of the same compound?
A: Its IC50 is 23.1 µmol/L.

Q: And the IC50 [3]?
A: Its IC50 is 88.1 µmol/L.
